In US10981932B2, “Macrocyclic indole derivatives” (Bayer Aktiengesellschaft, priority 2016, dated 2021):
Counter-ions that a name gives are not always drawn. Like-named read-outs stand apart in the source and are kept apart here.

Legend:
[1] = biological target: MCL-1 (Homo sapiens, UniProt Q07820); test: Protein-protein interaction assay MCL-1/Noxa BH3 peptide (MCL-1 assay), TR-FRET; type: binding; conditions: MBP-MCL-1 / Noxa BH3-derived peptide, median
Method in brief: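 Inhibition values were normalized between DMSO controls with all reagents and controls lacking MCL-1. The binding competition used 1 nM MBP-MCL-1 in pH 7 Tris buffer containing 50 mM KF and 100 mM NaCl, with a 10 min compound preincubation at 22 °C.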

[2] = system: SUDHL5; test: Induction of caspase-3/7 activity (Caspase-Glo 3/7), SUDHL5; type: cell-based; conditions: caspase-3/7 induction, SUDHL5 cells, 3 h treatment, median
Method in brief: (§1)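 Apoptosis induction measured as caspase-3/7 activity (Caspase-Glo 3/7) in DLBCL lines after 3 h treatment at 37 °C; EC50 derived relative to the reference compound's maximal induction, with C0 fixed at 1.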

[3] = system: SUDHL10; test: Induction of caspase-3/7 activity (Caspase-Glo 3/7), SUDHL10; type: cell-based; conditions: caspase-3/7 induction, SUDHL10 cells, 3 h treatment, median
Method in brief: as §1

[4] = system: SUDHL5; test: Anti-proliferative effect (CellTiter-Glo, 72 h), SUDHL5; type: cell-based; conditions: SUDHL5 cells, antiproliferation, median, read-out: Antiproli SUDHL5 [M] (median)
Method in brief: (§2)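 After seeding, one plate is read right away by CellTiter-Glo luminescence to fix time zero. The treated plates stay at 37 °C in humidified air for 72 h and are then measured with the same reagent and 10 min incubation.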

[5] = system: SUDHL10; test: Anti-proliferative effect (CellTiter-Glo, 72 h), SUDHL10; type: cell-based; conditions: SUDHL10 cells, antiproliferation, median, read-out: Antiproli SUDHL10 [M] (median)
Description: Assessment of the Anti-Proliferative Effect of Compounds in Different Cell Lines
The impact of compounds on the proliferation of different cell lines was assessed using the CellTiter-Glo® Luminescent Cell Viability reagent from Promega (G7573). Of note, SUDHL10 and SUDHL5 (DLBCL), NCI-H929 (Multiple Myeloma), A2780 (ovarian carcinoma) as well as MV-4-11(AML) cells are sensitive to MCL-1 inhibition.
In parallel, cells were plated in a reference (day 0) plate for time zero determination.
Rim wells were excluded. The cells were incubated for 72 h hours in a humidified incubator at 37° C. The day 0 plate was measured by adding 30 μl/well of CTG solution (CellTiter-Glo® Luminescent Cell Viability reagent, Promega G7573) to time zero wells in the reference plate followed by a 10 minutes incubation and luminescence reading at 0.1 ms, using the PHERAstar FS microplate reader (BMG Labtech).
After 72 h incubation, the treated plates were measured in the same way as the day 0 plate mentioned above.

[6] = system: A2780; test: Anti-proliferative effect (CellTiter-Glo, 72 h), A2780; type: cell-based; conditions: A2780 cells, median, read-out: IC50 antiproliferation assay A2780 [M] (median)
Method in brief: as §2

[7] = system: SUDHL5; test: Induction of cytotoxicity (CellTiter-Glo, 5 h), SUDHL5
[8] = system: SUDHL10; test: Induction of cytotoxicity (CellTiter-Glo, 5 h), SUDHL10
[9] = Homo sapiens, SU-DHL-5, 72 h, 72 h incubation
[10] = Homo sapiens, SU-DHL10, 72 h, 72 h incubation
[11] = Homo sapiens, SU-DHL-5, 5 h, read-out: Cytotox SUDHL5 [M] (median), SUDHL5 cells, cytotoxicity induction, CellTiter-Glo, 5 h incubation, median
[12] = Homo sapiens, SU-DHL10, 5 h, read-out: Cytotox SUDHL10 [M] (median), SUDHL10 cells, cytotoxicity induction, CellTiter-Glo, 5 h incubation, median
[13] = read-out: Cytotox SUDHL5 [M] (median), SUDHL5 cells, cytotoxicity induction, CellTiter-Glo, 5 h incubation, median
[14] = read-out: Cytotox SUDHL10 [M] (median), SUDHL10 cells, cytotoxicity induction, CellTiter-Glo, 5 h incubation, median

Chain of MCL-1 (Q07820 whole entry): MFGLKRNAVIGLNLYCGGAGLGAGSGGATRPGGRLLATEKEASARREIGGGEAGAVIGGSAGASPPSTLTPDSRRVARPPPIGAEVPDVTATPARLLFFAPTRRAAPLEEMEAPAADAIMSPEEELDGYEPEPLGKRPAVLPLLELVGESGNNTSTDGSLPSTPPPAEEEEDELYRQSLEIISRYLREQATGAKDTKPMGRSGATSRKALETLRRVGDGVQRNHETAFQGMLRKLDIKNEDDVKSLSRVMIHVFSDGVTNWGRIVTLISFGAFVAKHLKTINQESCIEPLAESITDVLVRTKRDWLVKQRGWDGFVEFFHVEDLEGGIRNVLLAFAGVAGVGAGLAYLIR

IC50 [1]	EC50 ([2]; Homo sapiens, SU-DHL-5, 3 h)	EC50 ([3]; Homo sapiens, SU-DHL10, 3 h)	IC50 [4, 9]	IC50 [5, 10]	IC50 ([6]; Homo sapiens, A2780, 72 h)	EC50 [2]	IC50 ([4]; 72 h)	IC50 ([5]; 72 h)	EC50 [3]	IC50 ([4]; 72 h incubation)	IC50 [6]	SMILES	IC50 [7, 11]	IC50 [8, 12]	IC50 ([7]; read-out: Cytotox SUDHL5 [M] (median), SUDHL5 cells, cytotoxicity induction, CellTiter-Glo, 5 h, median)	IC50 ([8]; Homo sapiens, SU-DHL10, 5 h, read-out: Cytotox SUDHL10 [M] (median), SUDHL10 cells, cytotoxicity induction, CellTiter-Glo, 5 h, median)	IC50 [7, 13]	IC50 [8, 14]
0.00965 µM	13.9 µM	> 33 µM	1.64e-05 M	1.46e-05 M	> 3.3e-05 M	–	–	–	–	–	–	Cc1ccc2c(CCCOc3cccc4ccccc34)c(C(=O)O)n3c2c1-c1c(C)nn(C)c1COCC=CC3 (racemic) [Example 038, (rac)-(E/Z)-1,3,4-trimethyl-7-[3-(1-naphthyloxy)propyl]-1,10,13,15-tetrahydropyrazolo[4′,3′:9,10][1,6]oxazacycloundecino[8,7,6-hi]indole-8-carboxylic Acid]	1.46e-05 M	> 3.3e-05 M	–	–	–	–
0.0144 µM	21 µM	> 33 µM	1.33e-05 M	3.25e-06 M	1.9e-05 M	–	–	–	–	–	–	Cc1nn(C)c2c1-c1cccc3c(CCCOc4cccc5cc(Cl)ccc45)c(C(=O)O)n(c13)CCCCOC2 (racemic) [Example 040, (rac)-7-{3-[(6-chloronaphthalen-1-yl)oxy]propyl}-1,3-dimethyl-1,10,11,12,13,15-hexahydropyrazolo[4′,3′:9,10][1,6]oxazacycloundecino[8,7,6-hi]indole-8-carboxylic Acid]	1.66e-05 M	> 3.3e-05 M	–	–	–	–
0.00427 µM	2.53 µM	8.57 µM	4.3e-06 M	7.54e-06 M	–	–	–	–	–	–	–	CCc1c2c(nn1CCN1CCOCC1)COCCCCn1c(C(=O)O)c(CCCOc3cccc4ccccc34)c3cccc-2c31 (racemic) [Example 201, (rac)-3-ethyl-2-[2-(morpholin-4-yl)ethyl]-7-[3-(naphthalen-1-yloxy)propyl]-2,10,11,12,13,15-hexahydropyrazolo[4′,3′:9,10][1,6]oxazacycloundecino[8,7,6-hi]indole-8-carboxylic Acid]	2.57e-06 M	7.98e-06 M	–	–	–	–
0.0226 µM	–	–	–	–	1.41e-05 M	13.8 µM	5.43e-06 M	9.36e-06 M	–	–	–	COc1ccc(OCc2nn(C)c3c2-c2cccc4c(CCCOc5cccc6ccccc56)c(C(=O)O)n(c24)CCCCOC3)cc1 (single isomer, unassigned; enantiomer 1) [Example 320, 3-[(4-methoxyphenoxy)methyl]-1-methyl-7-[3-(naphthalen-1-yloxy)propyl]-1,10,11,12,13,15-hexahydropyrazolo[4′,3′:9,10][1,6]oxazacycloundecino[8,7,6-hi]indole-8-carboxylic Acid-N-ethylethanamine Salt (Enantiomer 1)]	–	–	1.1e-05 M	2.29e-05 M	–	–
0.0259 µM	–	–	–	–	–	> 33 µM	–	–	32.7 µM	5.73e-06 M	2.78e-05 M	Cc1nn(C)c2c1-c1cccc3c(CCCOc4cccc5ccccc45)c(C(=O)O)n(c13)CCCOC2 (single isomer, unassigned; enantiomer 2) [Example 045, 9,11-dimethyl-1-[3-(naphthalen-1-yloxy)propyl]-5,6,8,9-tetrahydro-4H-pyrazolo[4′,3′:8,9][1,5]oxazecino[7,6,5-hi]indole-2-carboxylic acid-N-ethylethanamine Salt (Enantiomer 2)]	–	–	–	–	2.59e-05 M	2.89e-05 M
0.0393 µM	–	–	–	–	–	> 33 µM	–	–	> 33 µM	2.61e-05 M	> 3.3e-05 M	Cc1c2c(nn1C)COCCCn1c(C(=O)O)c(CCCOc3cccc4ccccc34)c3cccc-2c31 (single isomer, unassigned; enantiomer 2) [Example 065, 10,11-dimethyl-1-[3-(naphthalen-1-yloxy)propyl]-5,6,8,10-tetrahydro-4H-pyrazolo[4′,3′:8,9][1,5]oxazecino[7,6,5-hi]indole-2-carboxylic acid-N-ethylethanamine Salt (Enantiomer 2)]	–	–	–	–	> 3.3e-05 M	> 3.3e-05 M
0.0103 µM	–	–	–	–	–	> 33 µM	–	–	> 33 µM	1.5e-05 M	1.98e-05 M	CCn1nc(C2CC2)c2c1COCCCCn1c(C(=O)O)c(CCCOc3cccc4ccccc34)c3cccc-2c31 (single isomer, unassigned; enantiomer 2) [Example 090, 3-cyclopropyl-1-ethyl-7-[3-(naphthalen-1-yloxy)propyl]-1,10,11,12,13,15-hexahydropyrazolo[4′3′:9,10][1,6]oxazacycloundecino[8,7,6-hi]indole-8-carboxylic acid-N-ethylethanamine Salt (Enantiomer 2)]	–	–	–	–	> 3.3e-05 M	> 3.3e-05 M
0.0666 µM	–	–	–	–	–	> 33 µM	–	–	> 33 µM	1.26e-05 M	2.84e-05 M	CCc1c2c(nn1C)COCCCCn1c(C(=O)O)c(CCCOc3cccc4ccccc34)c3cccc-2c31 (single isomer, unassigned; enantiomer 2) [Example 149, 3-Ethyl-2-methyl-7-[3-(1-naphthyloxy)propyl]-2,10,11,12,13,15-hexahydropyrazolo[4′,3′:9,10][1,6]oxazacycloundecino[8,7,6-hi]indole-carboxylic acid-N-ethylethanamine Salt (Enantiomer 2)]	–	–	–	–	> 3.3e-05 M	> 3.3e-05 M
0.048 µM	–	–	–	–	–	> 33 µM	–	–	> 33 µM	8.34e-06 M	2.25e-05 M	CCc1c2c(nn1C)COCCCCn1c(C(=O)O)c(CCCOc3cccc4ccccc34)c3ccc(C)c-2c31 (single isomer, unassigned; enantiomer 2) [Example 155, 3-Ethyl-2,4-dimethyl-7-[3-(1-naphthyloxy)propyl]-2,10,11,12,13,15-hexahydropyrazolo[4′,3′:9,10][1,6]oxazacycloundecino[8,7,6-hi]indole-8-carboxylic acid-N-ethylethanamine Salt (Enantiomer 2)]	–	–	–	–	> 3.3e-05 M	> 3.3e-05 M
0.00751 µM	3.75 µM	17.1 µM	9.89e-06 M	–	2.89e-05 M	–	–	–	–	–	–	Cc1c2c(nn1CC(F)(F)F)COCCCCn1c(C(=O)O)c(CCCOc3cccc4ccccc34)c3cccc-2c31 [Example 241, 3-methyl-7-[3-(naphthalen-1-yloxy)propyl]-2-(2,2,2-trifluoroethyl)-210,11,12,13,15-hexahydropyrazolo[4′,3′:9,10][1,6]oxazacycloundecino[8,7,6-hi]indole-8-carboxylic Acid]	4.64e-06 M	1.92e-05 M	–	–	–	–

SMILES	IC50 [1]	EC50 ([2]; Homo sapiens, SU-DHL-5, 3 h)	EC50 ([3]; Homo sapiens, SU-DHL10, 3 h)	IC50 [4, 9]	IC50 [5, 10]	IC50 ([6]; Homo sapiens, A2780, 72 h)	EC50 [2]	IC50 ([4]; 72 h)	IC50 ([5]; 72 h)	EC50 [3]	IC50 ([4]; 72 h incubation)	IC50 [6]	IC50 [7, 11]	IC50 [8, 12]	IC50 ([7]; read-out: Cytotox SUDHL5 [M] (median), SUDHL5 cells, cytotoxicity induction, CellTiter-Glo, 5 h, median)	IC50 ([8]; Homo sapiens, SU-DHL10, 5 h, read-out: Cytotox SUDHL10 [M] (median), SUDHL10 cells, cytotoxicity induction, CellTiter-Glo, 5 h, median)	IC50 [7, 13]	IC50 [8, 14]
Cc1nn(C)c2c1-c1cccc3c(CCCOc4cccc5cc(F)ccc45)c(C(=O)O)n(c13)CCCOC2 (single isomer, unassigned; enantiomer 2) [Example 048, 1-{3-[(6-fluoronaphthalen-1-yl)oxy]propyl}-9,11-dimethyl-5,6,8,9-tetrahydro-4H-pyrazolo[4′,3′:8,9][1,5]oxazecino[7,6,5-hi]indole-2-carboxylic acid-N-ethylethanamine Salt (Enantiomer 2)]	0.0136 µM	13.2 µM	17.8 µM	4.84e-06 M	–	1.01e-05 M	–	–	–	–	–	–	1.19e-05 M	1.71e-05 M	–	–	–	–
